# System: KRAS-mutant PDC complex spheroid viability
# Test: Anticancer human tumor 186277-243-T-J2-PDC patient-derived colon adenocarcinoma cell line growth inhibition [KRAS2]
# Conditions: for IC50: curve of first compound; for viability, T/C: stronger effect = lower value
# Summary of the method: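 Combination screen of spheroid viability in tumor-cell co-cultures with endothelial (HUVEC) and mesenchymal stem cell stroma. Each agent was tested in half-log dilutions, topping at clinical Cmax or at 10 microM without a known Cmax.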
# [1] = second compound 0.0316 µM, first compound 0.0316 µM
# [2] = second compound 0.0316 µM, first compound 0.1 µM
# [3] = second compound 0.0316 µM, first compound 0.316 µM
# [4] = second compound 0.0316 µM, first compound 1 µM
# [5] = second compound 0.0316 µM, first compound 3.16 µM
# [6] = second compound 0.0316 µM, first compound 10 µM
# [7] = second compound 0.1 µM, first compound 0.0316 µM
# [8] = second compound 0.1 µM, first compound 0.1 µM
# [9] = second compound 0.1 µM, first compound 0.316 µM
# [10] = second compound 0.1 µM, first compound 1 µM
# [11] = second compound 0.1 µM, first compound 3.16 µM
# [12] = second compound 0.1 µM, first compound 10 µM
# [13] = second compound 0.316 µM, first compound 0.0316 µM
# [14] = second compound 0.316 µM, first compound 0.1 µM
# [15] = second compound 0.316 µM, first compound 0.316 µM
# [16] = second compound 0.316 µM, first compound 1 µM
# [17] = second compound 0.316 µM, first compound 3.16 µM
# [18] = second compound 0.316 µM, first compound 10 µM
# [19] = second compound 1 µM, first compound 0.0316 µM
# [20] = second compound 1 µM, first compound 0.1 µM
# [21] = second compound 1 µM, first compound 0.316 µM
# [22] = second compound 1 µM, first compound 1 µM
# [23] = second compound 1 µM, first compound 3.16 µM
# [24] = second compound 1 µM, first compound 10 µM
# [25] = second compound 3.16 µM, first compound 0.0316 µM
# [26] = second compound 3.16 µM, first compound 0.1 µM
# [27] = second compound 3.16 µM, first compound 0.316 µM
# [28] = second compound 3.16 µM, first compound 1 µM
# [29] = second compound 3.16 µM, first compound 3.16 µM
# [30] = second compound 3.16 µM, first compound 10 µM
# [31] = second compound 0.1 µM, first compound 0.01 µM
# [32] = second compound 0.316 µM, first compound 0.01 µM
# [33] = second compound 1 µM, first compound 0.01 µM
# [34] = second compound 3.16 µM, first compound 0.01 µM
# [35] = second compound 10 µM, first compound 0.01 µM
# [36] = second compound 10 µM, first compound 0.0316 µM
# [37] = second compound 10 µM, first compound 0.1 µM
# 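For viability, T/C in this document: viability read after seven days of compound exposure; 100% = DMSO vehicle-treated spheroids so lower means less viable.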
compound,measurement,setting,value
CC1OCC2(CCN(c3cnc(Sc4ccnc(N)c4Cl)c(N)n3)CC2)C1N (stereo not given) + C=CC(=O)N1CCN(c2nc(OCC3CCCN3C)nc3c2CCN(c2cccc4cccc(C)c24)C3)CC1CC#N,IC50,second compound 0.0316 µM,> 10000 nM
same,IC50,second compound 0.1 µM,> 10000 nM
same,IC50,second compound 0.316 µM,> 10000 nM
same,IC50,second compound 1 µM,> 10000 nM
same,IC50,second compound 3.16 µM,< 31.6 nM
same,"viability, T/C",[1],111%
same,"viability, T/C",[2],101%
same,"viability, T/C",[3],108%
same,"viability, T/C",[4],101%
same,"viability, T/C",[5],102%
same,"viability, T/C",[6],116%
same,"viability, T/C",[7],108%
same,"viability, T/C",[8],112%
same,"viability, T/C",[9],110%
same,"viability, T/C",[10],103%
same,"viability, T/C",[11],104%
same,"viability, T/C",[12],110%
same,"viability, T/C",[13],113%
same,"viability, T/C",[14],111%
same,"viability, T/C",[15],102%
same,"viability, T/C",[16],110%
same,"viability, T/C",[17],102%
same,"viability, T/C",[18],116%
same,"viability, T/C",[19],102%
same,"viability, T/C",[20],99.9%
same,"viability, T/C",[21],101%
same,"viability, T/C",[22],107%
same,"viability, T/C",[23],118%
same,"viability, T/C",[24],88.5%
same,"viability, T/C",[25],1.51%
same,"viability, T/C",[26],10%
same,"viability, T/C",[27],0.47%
same,"viability, T/C",[28],0.22%
same,"viability, T/C",[29],0.3%
same,"viability, T/C",[30],1.11%
Cn1nccc1Nc1nccc(-c2cc3c(s2)C(C)(C)N(CCN2CCOCC2)C3=O)n1 + C=CC(=O)N1CCN(c2nc(OCC3CCCN3C)nc3c2CCN(c2cccc4cccc(C)c24)C3)CC1CC#N,IC50,second compound 0.0316 µM,409 nM
same,IC50,second compound 0.1 µM,456 nM
same,IC50,second compound 0.316 µM,344 nM
same,IC50,second compound 1 µM,388 nM
same,IC50,second compound 3.16 µM,< 31.6 nM
same,"viability, T/C",[1],111%
same,"viability, T/C",[2],96.7%
same,"viability, T/C",[3],63%
same,"viability, T/C",[4],5.23%
same,"viability, T/C",[5],6.25%
same,"viability, T/C",[6],6.65%
same,"viability, T/C",[7],105%
same,"viability, T/C",[8],104%
same,"viability, T/C",[9],70.2%
same,"viability, T/C",[10],5.12%
same,"viability, T/C",[11],9.32%
same,"viability, T/C",[12],6.37%
same,"viability, T/C",[13],101%
same,"viability, T/C",[14],97.1%
same,"viability, T/C",[15],51.8%
same,"viability, T/C",[16],15.8%
same,"viability, T/C",[17],5.05%
same,"viability, T/C",[18],7.23%
same,"viability, T/C",[19],91%
same,"viability, T/C",[20],88.6%
same,"viability, T/C",[21],59.1%
same,"viability, T/C",[22],8.02%
same,"viability, T/C",[23],4.02%
same,"viability, T/C",[24],4.26%
same,"viability, T/C",[25],10.1%
same,"viability, T/C",[26],1.3%
same,"viability, T/C",[27],0.45%
same,"viability, T/C",[28],0.51%
same,"viability, T/C",[29],0.15%
same,"viability, T/C",[30],0.16%
CC(=O)OC12COC1CC(O)C1(C)C(=O)C(O)C3=C(C)C(OC(=O)C(O)C(NC(=O)OC(C)(C)C)c4ccccc4)CC(O)(C(OC(=O)c4ccccc4)C21)C3(C)C (stereo not given) + CC1OCC2(CCN(c3cnc(Sc4ccnc(N)c4Cl)c(N)n3)CC2)C1N,IC50,second compound 0.1 µM,< 10 nM
same,IC50,second compound 0.316 µM,< 10 nM
same,IC50,second compound 1 µM,< 10 nM
same,IC50,second compound 3.16 µM,< 10 nM
same,IC50,second compound 10 µM,< 10 nM
same,"viability, T/C",[31],4.2%
same,"viability, T/C",[7],2.69%
same,"viability, T/C",[8],2.31%
same,"viability, T/C",[9],2.12%
same,"viability, T/C",[10],2.12%
same,"viability, T/C",[11],2.53%
same,"viability, T/C",[32],2.83%
same,"viability, T/C",[13],3.64%
same,"viability, T/C",[14],1.94%
same,"viability, T/C",[15],1.7%
same,"viability, T/C",[16],1.93%
same,"viability, T/C",[17],2.14%
same,"viability, T/C",[33],4.63%
same,"viability, T/C",[19],3.42%
same,"viability, T/C",[20],3.58%
same,"viability, T/C",[21],2.84%
same,"viability, T/C",[22],3.01%
same,"viability, T/C",[23],3.67%
same,"viability, T/C",[34],2.53%
same,"viability, T/C",[25],1.65%
same,"viability, T/C",[26],2.04%
same,"viability, T/C",[27],1.63%
same,"viability, T/C",[28],1.81%
same,"viability, T/C",[29],2.09%
same,"viability, T/C",[35],1.96%
same,"viability, T/C",[36],1.99%
same,"viability, T/C",[37],1.61%
same,"viability, T/C","second compound 10 µM, first compound 0.316 µM",1.82%
same,"viability, T/C","second compound 10 µM, first compound 1 µM",1.73%
same,"viability, T/C","second compound 10 µM, first compound 3.16 µM",1.74%
CN(C)C/C=C/C(=O)Nc1cc2c(Nc3ccc(F)c(Cl)c3)ncnc2cc1O[C@H]1CCOC1 + CC1OCC2(CCN(c3cnc(Sc4ccnc(N)c4Cl)c(N)n3)CC2)C1N,IC50,second compound 0.1 µM,> 100 nM
same,IC50,second compound 0.316 µM,> 100 nM
same,IC50,second compound 1 µM,> 100 nM
same,IC50,second compound 3.16 µM,28.9 nM
same,IC50,second compound 10 µM,27.8 nM
same,"viability, T/C","second compound 0.1 µM, first compound 0.000316 µM",92.7%
same,"viability, T/C","second compound 0.1 µM, first compound 0.001 µM",104%
same,"viability, T/C","second compound 0.1 µM, first compound 0.00316 µM",104%
same,"viability, T/C",[31],126%
same,"viability, T/C",[7],100%
same,"viability, T/C",[8],108%
same,"viability, T/C","second compound 0.316 µM, first compound 0.000316 µM",103%
same,"viability, T/C","second compound 0.316 µM, first compound 0.001 µM",101%
same,"viability, T/C","second compound 0.316 µM, first compound 0.00316 µM",112%
same,"viability, T/C",[32],104%
same,"viability, T/C",[13],84.5%
same,"viability, T/C",[14],81.4%
same,"viability, T/C","second compound 1 µM, first compound 0.000316 µM",92.5%
same,"viability, T/C","second compound 1 µM, first compound 0.001 µM",90.5%
same,"viability, T/C","second compound 1 µM, first compound 0.00316 µM",93.5%
same,"viability, T/C",[33],99.8%
same,"viability, T/C",[19],99.8%
same,"viability, T/C",[20],99.5%
same,"viability, T/C","second compound 3.16 µM, first compound 0.000316 µM",97.8%
same,"viability, T/C","second compound 3.16 µM, first compound 0.001 µM",81.3%
same,"viability, T/C","second compound 3.16 µM, first compound 0.00316 µM",87.7%
same,"viability, T/C",[34],62.6%
same,"viability, T/C",[25],49.4%
same,"viability, T/C",[26],34.6%
same,"viability, T/C","second compound 10 µM, first compound 0.000316 µM",92.9%
same,"viability, T/C","second compound 10 µM, first compound 0.001 µM",92%
same,"viability, T/C","second compound 10 µM, first compound 0.00316 µM",79.6%
same,"viability, T/C",[35],103%
same,"viability, T/C",[36],44.6%
same,"viability, T/C",[37],38.4%

# From PubChem BioAssay AID1963875 (Molecular Pharmacology Branch, DTP, NCI, 2024)
